# Data reported in paper PMC8348110, “A Novel Peptide Derived from the Transmembrane Domain of Romo1 Is a Promising Candidate for Sepsis Treatment and Multidrug-Resistant Bacteria” (International Journal of Molecular Sciences, 2021).
# Residues, ends and D or L forms follow the SMILES beside them.
# How the values were obtained:
# P. aeruginosa = details: mouse, iv, 40 mg/kg
# Procedure: Figure 4 The antibacterial activity of AMPR-22 in various physiological conditions. (A,B) Effects of AMPR-22 activity in mouse plasma and human serum. AMPR-22 was incubated with blood components for the indicated times (0, 15, 30, 60, 90, 120, 150, and 180 min) and then with P. aeruginosa or S. aureus for an hour. (C,D) Effects of AMPR-22 activity in low-density lipoprotein (LDL), high-density lipoprotein (HDL), and bovine serum albumin. AMPR-22 was incubated with blood components for the indicated times (0, 30, 60, 120, and 180 min) and then with P. aeruginosa or S. aureus for an hour. (E) Effects of AMPR-22 activity in whole blood. AMPR-22 was incubated with mouse and human whole blood for the indicated times (0, 30, 60, 90, 120, and 180 min) and then with P. aeruginosa for an hour. (F,G) The antibacterial activity of AMPR-22 in vivo. […] (F) The relative CFU in blood samples was calculated using the following formula: CFU at indicated time ÷ CFU at 0 min × 100 (%). […] The antibacterial activity was measured using a colony-forming unit assay. […]
# (§1) We used the CFU counting method to measure antibacterial activity, with all bacteria cultured to the mid-log phase in an appropriate broth medium. Bacterial CFUs were counted after overnight culture at 37 °C on TS or LB agar plates. The MBC value and antibacterial activity in blood components were determined as previously described. […]
# [1] = test system: P. aeruginosa or S. aureus; format: in vitro ADME
# Procedure: Figure 4 The antibacterial activity of AMPR-22 in various physiological conditions. (A,B) Effects of AMPR-22 activity in mouse plasma and human serum. AMPR-22 was incubated with blood components for the indicated times (0, 15, 30, 60, 90, 120, 150, and 180 min) and then with P. aeruginosa or S. aureus for an hour. (C,D) Effects of AMPR-22 activity in low-density lipoprotein (LDL), high-density lipoprotein (HDL), and bovine serum albumin. AMPR-22 was incubated with blood components for the indicated times (0, 30, 60, 120, and 180 min) and then with P. aeruginosa or S. aureus for an hour. (E) Effects of AMPR-22 activity in whole blood. AMPR-22 was incubated with mouse and human whole blood for the indicated times (0, 30, 60, 90, 120, and 180 min) and then with P. aeruginosa for an hour. (F,G) The antibacterial activity of AMPR-22 in vivo. AMPR-22 was intravenously administered into P. aeruginosa-infected mice, and blood was collected from the tail veins of the mice at the indicated times (0, 15, 30, 60, and 90 min). (F) The relative CFU in blood samples was calculated using the following formula: CFU at indicated time ÷ CFU at 0 min × 100 (%). (G) The relative CFU of blood samples obtained from F was re-graphed using the following formula: CFU of AMPR-22-treated mouse group ÷ CFU of control (PBS) group × 100 (%). (H) The functional half-life measurement of AMPR-22. AMPR-22 was intravenously administered into mice, and blood was collected at the indicated times (0, 5, 30, 60, 90, 120, 150, and 180 min). The blood was collected by cardiac puncture, and the plasma was isolated by centrifugation. Then, the plasma was incubated with P. aeruginosa for an hour. The antibacterial activity was measured using a colony-forming unit assay. […]
# as §1
# BALB/c mice = assay: In vivo toxicity, single intravenous dose; design: species or system mouse; details: 100 mg/kg single intravenous dose, tracked for 15 days, compared with PBS-treated mice
# Procedure: We compared the toxicity of AMPR-22 in mammalian cells with that of AMPR-11 and AMPR-21. […] To investigate the toxicity of AMPR-22 to white blood cells, we isolated fresh peripheral blood mononuclear cells (PBMCs) from humans and mice. […] To check for in vivo toxicity before administering AMPR-22 to mice in a murine model of sepsis, we intravenously injected 100 mg/kg single dose of AMPR-22 (10-fold higher than the working dose) into BALB/c mice and tracked them for 15 days.
# Figure 3 The cytotoxicity of AMPR-22. (A) The cell toxicity of the AMPR-11 analog peptides was measured using the MTT assay in HeLa and HEK293 cells. Daptomycin and magainin 2 were also tested. (B) A hemolysis assay was performed in mouse and human blood. The percentage of hemolyzed erythrocytes was measured using a spectrophotometer. Peptides were serially diluted and incubated with cells for an hour. (C) The toxicity of leukocytes was measured using a flow cytometric assay with LIVE/DEAD fixable dead cell™ stain dye and freshly isolated mouse and human PBMCs. […] Data represent the means ± SD of more than three independent experiments.
# [2] = test system: Carbapenem-resistant A. baumannii, clinical isolate; format: cell-based, Acinetobacter baumannii; details: 1 h
# Description: Acinetobacter baumannii (ATCC 19606), B. subtilis (ATCC 6633), E. aerogenes (ATCC 13048), E. coli (ATCC 25922), E. faecalis (ATCC 19433), E. faecium (ATCC 19434), K. pneumoniae (ATCC 13883), P. aeruginosa (ATCC 27853), S. aureus (ATCC 29213), S. sindenensis (ATCC 23963), and MRSA (ATCC 33591) were purchased from the American Type Culture Collection (ATCC; Gaithersburg, MD, USA). Streptococcus pneumoniae (NCCP 14585), vancomycin-resistant E. faecium (NCCP 11522), and vancomycin-resistant S. aureus (NCCP 15872) were purchased from the National Culture Collection for Pathogens (NCCP; Cheongju, Korea). The isolation and use of carbapenem-resistant bacterial strains from a patient were approved (2015AN0129) by the Institutional Review Board (IRB) of Korea University Hospital. […]
# The minimum bactericidal concentration (MBC) was determined as previously described with minor modifications. […] The value of MBC was determined at the lowest concentrations at which no colonies were identified.
# as §1
compound,measurement,setting,value
CC[C@H](C)[C@H](NC(=O)CNC(=O)CNC(=O)[C@@H](NC(=O)[C@H](C)NC(=O)[C@H](CCSC)NC(=O)[C@H](Cc1ccccc1)NC(=O)[C@@H](NC(=O)CNC(=O)[C@H](Cc1ccccc1)NC(=O)[C@H](CCCCN)NC(=O)CNC(=O)CNC(=O)[C@H](CCCCN)NC(=O)[C@H](CCCCN)NC(=O)[C@H](CCSC)NC(=O)[C@H](CCSC)NC(=O)[C@H](CCCCN)NC(=O)[C@@H](N)CCCCN)[C@@H](C)O)[C@@H](C)CC)C(=O)N[C@@H](CCCNC(=N)N)C(=O)O [AMPR-22] (H-KKMMKKGGKFGTFMAIGGIR-OH),Antibacterial activity maintained 37 min after peptide injection,P. aeruginosa; in vivo,more than 50%
same,Functional half-life in vivo,P. aeruginosa,around 37 min
same,"Antibacterial activity in presence of human LDL, HDL or bovine serum albumin",[1],not affected
same,Functional half-life in vitro,[1],around 90 min
same,Half-life of antibacterial activity in mouse plasma and human serum,[1],longer than that of AMPR-11
same,In vivo toxicity (weight loss or death),BALB/c mice,No significant changes
same,"MBC Value, Carbapenem-resistant A. baumannii",[2],1 µg/mL
